Results from ChEMBL document CHEMBL3507680, “University of Dundee, Gates Library screen for HepG2 cell viability”.

Experiment: Human HepG2 cell viability assay in 384 well format
Type: toxicity, cell-based
Parameters: dose 125 nL, time 70.5 hour; concentration not given beside the values
Settings: HepG2 cells, read-out: Inhibition

Compound | cytotoxicity at 70.5 h [%]
Cc1nc(NC2CC2)c2c(n1)c(C)nn2C | -18.4
O=C1CC2(CCN(Cc3ccc(C(F)(F)F)nc3)CC2)CN1 | 8.74
c1ccc(-c2nnc(CN3CCOC(Cn4cccn4)C3)o2)cc1 (stereo not given) | -6.72
CC1CCC(NC(=O)CNC2(c3ccc(F)cc3)CCOCC2)CC1 (stereo not given) | -3.54
c1coc(CN2C[C@H](OCC3CCOCC3)[C@H]3COC[C@H]32)c1 | -15.3
Cc1ccccc1C(=O)N1CCOC2(CNCCOC2)C1 (stereo not given) | -4.46
Cc1cc2nc(C(C)C)cc(N(C)CC3CCN(C(C)C)C3)n2n1 (stereo not given) | 28
COc1ccc(Cl)cc1-c1cc(NC(=O)CNC(=O)C2CC2)[nH]n1 | -7.16
Cc1csc(CNC(=O)NC2CCCN(S(C)(=O)=O)C2)n1 (stereo not given) | -12.3
COC(=O)c1cc(CN2CCN(c3ncccc3C)CC2)ccc1O | 39.9
c1cncc(OCc2noc3c2CN(Cc2cccs2)CC3)c1 | -24.1
CC(CCN1CCCn2nc(CNS(C)(=O)=O)cc2C1)c1ccccc1 (stereo not given) | 17.7
O=C(c1cccc(Cl)c1)C1CCCN(c2nnc(C3CCC3)o2)C1 (stereo not given) | 5.93
CN1CCN(Cc2cnc3n2CCN(Cc2cccs2)C3)CC1 | 3.18
c1cc(-c2noc(-c3cc(C4CC4)on3)n2)cc(N2CCCCC2)n1 | -7.87
CC(=O)N1CCCC1c1cccc(C)c1C (stereo not given) | -4.04
CC(=O)N1C[C@H]2CNC[C@@]2(C(=O)NCCCOc2cccnc2)C1 | 20
Cn1cc(CN2CC[C@@H]3[C@@H]2CCN3C(=O)Cc2cccc(F)c2)cn1 | -4.59
CN1CCOCC12CCN(Cc1ccoc1)CC2 | -13.2
CN1CCC(N2CCOC[C@H](OCC(=O)N(C)C)C2)CC1 | 0.483
Cc1ccc2c(c1)c(CNC(=O)C1CC(=O)N(C3CC3)C1)nn2C (stereo not given) | -4.12
Cc1nn(C)cc1-c1cc(C(F)F)nc2sc(C(N)=O)c(N)c12 | 7.12
NC(=O)CC1CCCCN1C(=O)c1cccc(C(F)(F)F)c1 (stereo not given) | -0.919

Compound | cytotoxicity at 70.5 h [%]
CC(=O)N1CCC(Cc2cnc(-c3c(C)nn(C)c3C)cn2)CC1 | -0.949
Cc1nn(CN(CC(C)C)C2CC2)c(=O)c2noc(C)c12 | 14.5
O=C(NC1CCN(Cc2ccc(F)cc2)CC1)c1ccc2c(c1)CCC2 | -6.88
COc1ncc(CN2CCC3(CCCN(CC4CCC4)C3)C2)cn1 (stereo not given) | -1.38
COCCN1CCN(Cc2csc(-c3cnn(C)c3)n2)CC1 | -7.26
O=C(NCc1ccccc1)[C@@H]1Cc2[nH]cnc2CN1CC1CC1 | -3.43
COc1cc(-c2cnnc(NCCSC)n2)cc(OC)c1OC | -5.18
Cn1cnnc1SC1CCc2ccccc2NC1=O (stereo not given) | -20.5
CC(C)CC(=O)N1CCC(c2nnc3n2CCCCC3)CC1 | -0.981
Cc1ccc(CN2CCc3onc(C(=O)NC(C)C)c3C2)o1 | -8.41
CC(c1nc(C(C)(C)C)no1)N1CCN(CC(=O)N2CCOCC2)CC1 (stereo not given) | -16.5
NC(=O)N1CCCC(C(=O)NCCOc2ccc3c(c2)OCO3)C1 (stereo not given) | 2.99
COc1c(C2CCCN2C(=O)c2ccoc2C)c(C)nn1C (stereo not given) | 7.26
CC(NC(=O)c1cc2n(n1)CCCN(C)C2)c1cn2ncsc2n1 (stereo not given) | -7.44
Cn1ccnc1CN1C[C@@H](CN2CCCCCC2)[C@@H](CO)C1 | 1.19
CSc1ccc(NCc2csc(C)n2)cc1F | -0.888
CN(Cc1cc(C2CC2)on1)C(=O)C(c1cccnc1)N1CCCC1 (stereo not given) | -1.03
CN(C)C(=O)CN1C[C@@H]2CC[C@H](C1)N(C/C=C/c1ccc(F)cc1)C2 | -0.0436
Cc1cc(CN(C)C(C(=O)O)c2cccc(C(F)(F)F)c2)on1 (stereo not given) | -7.95
CC(C#N)CN(C)C(=O)CCNC(=O)C(C)(C)C (stereo not given) | 0.0301
CN1CCC2(CCC1=O)CCN(C(=O)Cc1ccc(O)c(F)c1)CC2 | 2.31
Cc1ccc(-c2noc(CN3CCn4c(nnc4C4CC4)C3)n2)cc1 | -16
